Results published in patent US11628226B2, “Methods and gene therapy constructs for treating GM2 gangliosidoses” (priority 2016, dated 2023).

How the values were obtained:
Sandhoff mouse (hexb-/-) [1] = test: Survival of SD mice (Kaplan-Meier, humane end point); type: in vivo; conditions: for Survival in conjunction with HEXB-HEXA: AAV9-HEXB-HEXA neonatal day one 2×10^13 vg/kg plus daily oral drug from eight weeks; for Survival time: untreated SD mice 110 days; for Mice that did not reach humane end point after 210 days: drug in conjunction with HEXB-HEXA, n=6 per group
Method: The hexb−/− experimental mice were obtained from Jackson Laboratories. From these, a colony was established at Queen's University through heterozygous breeding (hexb+/−). Genotyping of the mice was carried out via PCR amplification from animal ear punches taken at the time of weaning (three weeks of age). Experimental animals were obtained through mutant cross breeding (hexb−/−). The mice were maintained on a 12-hour light cycle from 7 am to 7 pm. All experimental protocols and procedures were performed in accordance with and were approved by the Queen's University Animal Care Committee.
Neonatal mice were intravenously injected with the ssAAV/HEXB-HEXA vector or a vehicle injection through the superficial temporal vein on day 0-1. Each treated mouse received an injection of 2.04×10^10 vg/mouse in a volume of 50 uL PBS with […] NaCl and 5% sorbitol (vehicle). Untreated mice received an injection of 50 uL vehicle. During the injections, the dames were removed from the pups and placed in a clean cage. The cage of the pups alone was placed on a heating pad to keep them warm. Pups were then removed from the cage, one at a time, and placed over an LED light to aid in visualization of the superficial temporal vein. The pups received the injection using a 30 gauge needle and 1 mL syringe. After the injection, pressure was applied to the mouse using sterile gauze and the pup was returned to the home cage. The dame was returned to the cage with the pups following the completion of all injections. Pups were then monitored closely for several days to ensure survival.
Starting at eight weeks of age, each drug treatment cohort received pyrimethamine, indomethacin, or ITF2357 at a dose of 1 mg/kg/day. Drug treatments were administered in the morning of the 12-hour light cycle via oral gavage using a 22 g curved feeding needle from Kent Scientific. ITF2357 was dissolved in ddH2O by heating to 85° C. while stirring for 1 hour. Indomethacin and pyrimethamine were each dissolved in 0.5% methylcellulose by heating to 80° C. while stirring for 1 hour. Each of these was stored at 4° C. for up to 2 weeks.
(§1) Animal tissues were collected at designated 16 week end points and long term humane end points. The humane end points were determined by either […] loss of peak body weight or an inability to right itself in 10 seconds. Euthanization was carried out via CO2 asphyxiation followed by cardiac puncture and perfusion with 10 mL of chilled PBS. For biochemical analysis sections of the forebrain, midbrain, hindbrain, cervical spinal cord, and lumbar spinal cord were collected along with the heart, lungs, liver, spleen, kidney, gonads, and a section skeletal muscle. These were all frozen immediately for further processing. For histological purposes, sections of the midbrain and liver were collected, fixed in 4% paraformaldehyde overnight and then immersed in 100% ethanol until sent to the Queen's University Histology department for paraffin embedding. Additional midbrain sections were collected from a number of mice and frozen in liquid nitrogen. Blood was collected via the saphenous vein on a monthly basis starting at 8 weeks and continuing until the humane end point. Additionally, blood was collected via the cardiac puncture during euthanization. Serum was separated from blood samples by centrifugation of 4000 rpm for 10 min and frozen immediately for storage.
To evaluate the efficacy of a single intravenous […] of rAAV9 expressing the human HEXA and HEXB cDNA in ameliorating the biochemical and neurological phenotype in SD, AAV9-HEXB-HEXA or a vehicle control was administered to postnatal day one neonates at a relatively low dose of 2×10^13 vg/kg via superficial temporal vein. Mice were all followed until they reached 32 weeks of age, or a humane end point.
Survival was analyzed with the log-rank (Mantel-Cox) test. […] This relationship is shown by the Kaplan-Meier plots in FIG. 3. […]

[2] = system: β-hexosaminidase A (HexA); test: HexA activity in midbrain (4-MUGS assay); type: in vivo, mouse; conditions: 16-week midbrain, drug alone or in conjunction with HEXB-HEXA
Method: Animal tissues were collected at designated 16 week end points and long term humane end points. The humane end points were determined by either […] loss of peak body weight or an inability to right itself in 10 seconds. Euthanization was carried out via CO2 asphyxiation followed by cardiac puncture and perfusion with 10 mL of chilled PBS. For biochemical analysis sections of the forebrain, midbrain, hindbrain, cervical spinal cord, and lumbar spinal cord were collected along with the heart, lungs, liver, spleen, kidney, gonads, and a section skeletal muscle. These were all frozen immediately for further processing. […]
Total hexosaminidase activity and Hex activity was measured as previously described (Maegawa et al. 2007; Tropak et al. 2004). […] Total hexosaminidase activity was determined through the use of the 4-methylumbelliferyl-2-acetamido-2-deoxy-β-D-glucopyranoside (4-MUG) assay, whereas the HexA enzyme activity alone was determined through the use of the 4-methylumbelliferyl-7-6-sulfo-2-acetamido-2-deoxy-β-D-glucopyranoside (4-MUGS) assay. Beta galactosidase activity was determined through the use of 4-methylumbelliferyl-β-D-galactopyranoside assay. […] Briefly, the samples were incubated with the fluorogenic substrate at 37° C. for 1 hour, then read on the plate reader with excitation wavelength of 365 nm and an emission wavelength of 450 nm. […]

[3] = system: GM2 ganglioside storage in mouse brain; test: GM2 ganglioside levels in midbrain by thin layer chromatography; type: in vivo; conditions: 16-week midbrain, drug on its own or in addition to HEXB-HEXA
Method: as §1, with “storage. […]” for “storage.”

Sandhoff mouse (hexb-/-) [4] = test: Open field test of motor activity in SD mice; type: in vivo; conditions: HEXB-HEXA treated SD mice plus drug, week 24
Method: Behavioural testing was carried out on a bi-weekly basis from the age of eight weeks until each end point. The behavioural testing was done in three different parts and always assessed in the morning of the 12 hour light cycle.
Open Field Test: Used to assess overall locomotion and activity levels. The mouse was placed in a 40 cm×40 cm arena with walls. Time moving, rearing activity and the distance travelled were all electronically recorded by an ActiMot system. Speed was calculated by dividing the distance travelled by the time moving. Each mouse underwent one five minute trial.
To determine if the administration of AAV9-HexB-HexA improved motor activity in the neonatally treated SD mice, distance travelled in the 5-minute open-field test was analyzed. Testing began at eight weeks, when motor deterioration in SD mice begins to show and continued on a bi-weekly basis to 24 weeks. […] In FIG. 4, values at each point represent the mean.

[5] = SD mice, drug alone 1 mg/kg/day oral gavage from eight weeks

SMILES | Survival in conjunction with HEXB-HEXA (Sandhoff mouse (hexb-/-) [1]; SD mice) | Survival time (Sandhoff mouse (hexb-/-) [1]; [5]) [days] | Mice that did not reach humane end point after 210 days (Sandhoff mouse (hexb-/-) [1]) | Further change in HexA activity [2] | Additional decrease in GM2 ganglioside build-up [3] | Mobility in the open field test in conjunction with HEXB-HEXA (Sandhoff mouse (hexb-/-) [4]) | Survival (mean) (Sandhoff mouse (hexb-/-) [1]; SD mice, drug alone 1 mg/kg/day oral gavage from eight weeks, no significant effect) [days]
CCN(CC)Cc1ccc2cc(COC(=O)Nc3ccc(C(=O)NO)cc3)ccc2c1 [ITF2357] | significant increase in survival | 119 | two | no further increase or decrease | No additional decrease | significant increase in mobility | –
COc1ccc2c(c1)c(CC(=O)O)c(C)n2C(=O)c1ccc(Cl)cc1 [indomethacin] | significant increase in survival | 123.5 | two | no further increase or decrease | No additional decrease | significant increase in mobility | –
CCc1nc(N)nc(N)c1-c1ccc(Cl)cc1 [pyrimethamine] | – | – | – | – | – | – | 112.5
